Results reported in paper PMC9229949 (Pharmaceutics, 2022).
Read-outs that look alike come from different tables or passages of the source.

How the values were obtained:
[1] = tested on: β-hematin formation from Fe(III)PPIX (hematin); assay: β-hematin inhibition activity, oxidizing conditions (O-BHIA, hematin); assay type: biochemical; conditions: 18 h incubation; median ± S.E.M. of three experiments; free bases; read-out: β-Hematin Inhibitory Activity (BHIA) O-BHIA (Hematin), IC50
Method: (§1) A hemin chloride (10 μL of 4 mM stock in 80% DMSO) aliquot was dispensed in a U bottom 96-well microplate, and then, 10 μL of 0.1 M NaOH (O-BHIA) or 4 mM reduced glutathione in PBS at pH 7.0 (R-BHIA) was added, and plates were sealed and incubated at 37 °C for 2 h. After this, 10 μL of the drug dissolved in DMSO was added and incubated for 2 h, followed by the addition of 180 μL of sodium acetate buffer (1.0 M, pH 5.2) and 10 μL of nonionic detergent IGEPAL-CA-630 solution in methanol (10 mg/mL). Plates were sealed and incubated at 37 °C for 18 h. […] The reaction was stopped by the addition of 50 μL of a sodium dodecyl sulfate solution (5.0% v/v in 0.1 M bicarbonate buffer at pH 9.0). Plates were centrifuged at 3700 rpm for 5 min, and 100 μL of supernatant was placed in a separate plate. […] Two independent experiments were performed, and each drug concentration was tested in quadruplicate concentrations.

[2] = tested on: β-hematin formation from Fe(II)PPIX (heme); assay: β-hematin inhibition activity, reducing conditions (R-BHIA, heme); assay type: biochemical; conditions: 18 h incubation; median ± S.E.M. of three experiments; free bases; read-out: β-Hematin Inhibitory Activity (BHIA) R-BHIA (Heme), IC50
Method: as §1

β-hematin formation = β-hematin formation inhibition by infrared spectroscopy; assay type: biochemical; set-up: key: Yes indicates β-hematin inhibition; No indicates β-hematin formation; conditions: 3:1 ratio of drug:hematin, qualitative by infrared
Method: The conversion of hemin to β-hematin was determined by infrared (IR) spectroscopy as described by Egan et al.. […] Then, 0.3 mL of 0.1 M HCl and 1.7 mL of sodium acetate buffer ([…], pH 5) were added at the same temperature. […] The solid was dried and IR spectra were obtained using attenuated total reflection (ATR) using chloroquine as a positive control.

[3] = Interaction with reduced glutathione (GSH) by monochlorobimane fluorescence assay; conditions: 2 h incubation, 10 to 0.3 drug:GSH molar ratio
Method: Ten microliters per well of a solution of 2.0 mM reduced glutathione (Sigma-Aldrich, St. Louis, MO, USA, dissolved in PBS pH 7.2) was distributed in a 96-well microplate containing 170 μL/well of DMSO/PBS (1:1; v/v). Stock solutions of compounds were diluted in DMSO, and 10 μL was added in quadruplicate in the respective wells to a final concentration of 0.015 to 0.5 mM. […] After 1 h incubation at room temperature, fluorescence was recorded (λex = 360 nm, λem = 440 nm). Blank subtraction was performed prior to monochlorobimane addition, and controls included untreated wells (no drug) and no GSH. The results were expressed as a percentage of inhibition of GSH binding to monochlorobimane in comparison to control without compound. At least two independent experiments were performed.

[4] = tested on: P. falciparum W2 (CQ-resistant) asexual blood stages; assay: In vitro activity against asexual blood stages of P. falciparum, CQ-resistant strain W2 (HRP2 ELISA); assay type: cell-based; conditions: Plasmodium falciparum, read-out: P. falciparum, IC50 ± S.E.M., CQ-Resistant W2
Method: (§2) The plates were incubated for 72 h at 37 °C in controlled atmosphere. After frozen and thawing the plates, hemolyzed cultures were homogenized by vortexing the plates. The antiparasitic activity was determined using the HRP2 ELISA-based assay Malaria Ag Celisa kit (ref KM2159, Cellabs PTY LDT, Brookvale, Australia). […] IC50s are expressed as means of three to five experiments.

[5] = tested on: P. falciparum 3D7 (CQ-susceptible) asexual blood stages; assay: In vitro activity against asexual blood stages of P. falciparum, CQ-susceptible strain 3D7 (HRP2 ELISA); assay type: cell-based; conditions: Plasmodium falciparum, read-out: P. falciparum, IC50 ± S.E.M., CQ-Susceptible 3D7
Method: as §2

[6] = tested on: 3D7 P. falciparum gametocytes stages I/III; assay: P. falciparum young gametocytes (stages I/III), luciferase viability; assay type: cell-based; conditions: Plasmodium falciparum, read-out: IC50, gametocytes of P. falciparum, Stages I/III
Method: (§3) The activity of compounds was assessed against young gametocytes (stages I/III) and against mature gametocytes (stage V). […] A volume of 100 μL of 3D7elo1-pfs16-CBG99 gametocytes of 3D7 P. falciparum at 0.5–1% parasitemia and 2% hematocrit were dispensed. […] Luciferase activity was used to determine gametocytes viability. A volume of 100 µL of culture medium was removed from each well to increase hematocrit; 70 µL of resuspended culture was transferred to a black 96-well plate; 70 µL of D-luciferin (1 mM in citrate buffer 0.1 M, pH 5.5) was added. Luminescence measurements were performed after 10 min with 500 ms integration time. The IC50 was extrapolated from nonlinear regression analysis of the concentration–response curve.

[7] = tested on: P. berghei sporozoites in Huh-7 cells; assay: P. berghei hepatic stages: infection of Huh-7 cells by luciferase-expressing sporozoites; assay type: cell-based; conditions: Plasmodium berghei, Huh-7, 48 h, read-out: Sporozoites (Inhibition of Infection, %)
Method: Huh-7 cells at 1.0 × 10^4 per well were seeded in 96-well plates the day before drug treatment and infection. The culture medium was replaced by infection medium (culture medium supplemented with gentamicin (50 μg/mL) and amphotericin B (0.8 μg/mL)) containing the appropriate concentration of each compound for approximately 1 h prior to infection with sporozoites of firefly luciferase-expressing P. berghei, freshly obtained through the disruption of salivary glands of infected female Anopheles stephensi mosquitoes. An amount of the DMSO solvent equivalent to that present in the highest compound concentration was used as negative control. Sporozoite addition was followed by centrifugation at 1800× g for 5 min. and parasite infection load was measured 48 h after infection by using a bioluminescence assay (Biotium, Hayward, CA, USA). The effect of the compounds on the viability of Huh-7 cells was assessed by performing the AlamarBlue (Invitrogen, Waltham, MA, USA) assay according to the manufacturer’s protocol.

[8] = tested on: 3D7 P. falciparum gametocytes stage V; assay: P. falciparum mature gametocytes (stage V), luciferase viability; assay type: cell-based; conditions: Plasmodium falciparum, 3D7, 72 h, read-out: IC50, gametocytes of P. falciparum, Stage V
Method: as §3

[9] = Cytotoxicity against J774 cells (CellTiter-Glo); assay type: cell-based, murine; conditions: mouse, J774 macrophage cells; reference drug, J774; read-out: CC50 for J774
Method: (§4) In vitro cytotoxicity was assayed against two mammalian cell lineages, J774 (murine macrophages) and HepG2 (human hepatocellular carcinoma). […] Cell cultures from 60 to 80% confluence were trypsinized, washed in complete medium, and 4 × 10^4 cells were plated in 100 µL per well with complete medium in 96-well flat-bottom white plates for 24 h at 37 °C prior to the addition of the compounds. Triplicate aliquots of compound and the reference drugs (stock solution in DMSO) covering 7 different concentrations at 2-fold dilutions were added to the wells, and plates were incubated for 72 h more. After incubation for 72 h at 37 °C, plates were maintained at room temperature, the culture medium was removed, and 100 µL volume of CellTiter-Glo reagent was added to each well. The bioluminescence was measured using a microplate reader Filtermax F5 Multi-Mode instrument (Molecular Devices) and Softmax software. […] The selectivity index (S.I.) was estimated using the IC50s from mammalian cells divided by the IC50 obtained against the asexual blood stage P. falciparum.

[10] = Cytotoxicity against uninfected HepG2 cells (CellTiter-Glo); assay type: cell-based; conditions: human, reference drug
Method: as §4

C[C@@H]1CC[C@H]2[C@@H](C)C(=O)O[C@@H]3O[C@@]4(C)CC[C@@H]1[C@]32OO4 [Artemisinin (ARS), artemisinin]
IC50 [1]: > 1000 µM
IC50 [2]: 60 ± 10 µM

CCN(CC)CCCC(C)Nc1ccnc2cc(Cl)ccc12 (centres unmarked) [Chloroquine (CQ), chloroquine]
IC50 [1]: 230 ± 40 µM
β-Hematin Inhibitory Activity (BHIA) Determined by IR (β-hematin formation): Yes
IC50 [2]: 130 ± 30 µM
interaction with GSH [3]: neither CQ nor phenanthroline interacted with GSH
IC50 ([4]; W2, 72 h): 0.459 ± 0.021 µM
IC50 ([5]; 3D7, 72 h): 0.018 ± 0.002 µM

C[C@H]1[C@@H](O)O[C@@H]2O[C@@]3(C)CC[C@H]4[C@H](C)CC[C@@H]1[C@@]24OO3 [DHA, dihydroartemisinin]
IC50 ([6]; 3D7 strain, 72 h, mean ± S.D. of one experiment): 0.0123 ± 0.0054 µM

COc1cc(NC(C)CCCN)c2ncccc2c1 (centres unmarked) [Primaquine (PQ), primaquine]
IC50 [1]: > 1000 µM
β-Hematin Inhibitory Activity (BHIA) Determined by IR (β-hematin formation): No
inhibition at 10 µM [7]: 52%
IC50 [2]: > 1000 µM
IC50 ([6]; 3D7, 72 h): 13.7 ± 7.6 µM
IC50 [8]: 43.2 ± 10.6 µM
IC50 ([4]; W2, 72 h incubation, HRP2 ELISA, mean ± S.E.M. of at least three experiments, AQ hydrochloride hydrate, PQ diphosphate, CQ diphosphate): 0.182 ± 0.016 µM
IC50 ([5]; 3D7, 72 h incubation, HRP2 ELISA, mean ± S.E.M. of at least three experiments, AQ hydrochloride hydrate, PQ diphosphate, CQ diphosphate): 1.12 ± 0.053 µM

COc1cccc2c1C(=O)c1c(O)c3c(c(O)c1C2=O)C[C@@](O)(C(=O)CO)C[C@@H]3O[C@H]1C[C@H](N)[C@H](O)[C@H](C)O1 [doxorubicin]
CC50 at 72 h [9]: 0.44 ± 0.31 µM
CC50 at 72 h [10]: < 0.12 µM

c1cnc2c(c1)ccc1cccnc12 [phenanthroline]
interaction with GSH [3]: neither CQ nor phenanthroline interacted with GSH
